Measurements from PubChem BioAssay AID1259407 (Chemical Carcinogenesis Research Information System (CCRIS), 2018).
Activity calls are given as the source filed them. No rule for the calls is given here.

Test system: CCRIS mutagenicity, Ames/micronucleus/aberration tests
Experiment: CCRIS mutagenicity studies

O=Cc1ccco1
mutagenic call (Test System: AMES SALMONELLA TYPHIMURIUM, Strain/Indicator: TA97, Metabolic Activation: NONE, Method: PREINCUBATION): inactive; negative | mutagenic call (Test System: AMES SALMONELLA TYPHIMURIUM, Strain/Indicator: TA97, Metabolic Activation: RAT, LIVER, S-9, AROCLOR 1254, Method: PREINCUBATION): inactive; negative | mutagenic call (Test System: AMES SALMONELLA TYPHIMURIUM, Strain/Indicator: TA98, Metabolic Activation: HAMSTER, LIVER, S-9, AROCLOR 1254 (10%), Method: PREINCUBATION): inactive; negative | mutagenic call (Test System: AMES SALMONELLA TYPHIMURIUM, Strain/Indicator: TA98, Metabolic Activation: HAMSTER, LIVER, S-9, AROCLOR 1254, Method: PREINCUBATION): inactive; negative | mutagenic call (Test System: AMES SALMONELLA TYPHIMURIUM, Strain/Indicator: TA98, Metabolic Activation: NONE, Method: STANDARD PLATE): inactive; negative | mutagenic call (Test System: AMES SALMONELLA TYPHIMURIUM, Strain/Indicator: TA98, Metabolic Activation: RAT LIVER S-9, PHENOBARBITAL AND BETA-NAPHTHOFLAVONE, Method: PREINCUBATION): inactive; negative | mutagenic call (Test System: AMES SALMONELLA TYPHIMURIUM, Strain/Indicator: TA98, Metabolic Activation: RAT, LIVER, S-9, AROCLOR 1254 (10%), Method: PREINCUBATION): inactive; negative | mutagenic call (Test System: AMES SALMONELLA TYPHIMURIUM, Strain/Indicator: TA98, Metabolic Activation: RAT, LIVER, S-9, AROCLOR 1254, Method: PREINCUBATION): inactive; negative | mutagenic call (Test System: AMES SALMONELLA TYPHIMURIUM, Strain/Indicator: TA98, Metabolic Activation: S-9, Method: STANDARD PLATE): inactive; negative | mutagenic call (Test System: AMES SALMONELLA TYPHIMURIUM, Strain/Indicator: TA100, Metabolic Activation: HAMSTER, LIVER, S-9, AROCLOR 1254 (10%), Method: PREINCUBATION): inactive; negative | mutagenic call (Test System: AMES SALMONELLA TYPHIMURIUM, Strain/Indicator: TA100, Metabolic Activation: HAMSTER, LIVER, S-9, AROCLOR 1254, Method: PREINCUBATION): inactive; negative | mutagenic call (Test System: AMES SALMONELLA TYPHIMURIUM, Strain/Indicator: TA100, Metabolic Activation: NONE, Method: STANDARD PLATE): inactive; negative | mutagenic call (Test System: AMES SALMONELLA TYPHIMURIUM, Strain/Indicator: TA100, Metabolic Activation: RAT LIVER S-9, AROCLOR 1254, Method: PREINCUBATION): inactive; negative | mutagenic call (Test System: AMES SALMONELLA TYPHIMURIUM, Strain/Indicator: TA100, Metabolic Activation: RAT LIVER S-9, PHENOBARBITAL AND BETA-NAPHTHOFLAVONE, Method: PREINCUBATION): inactive; negative | mutagenic call (Test System: AMES SALMONELLA TYPHIMURIUM, Strain/Indicator: TA100, Metabolic Activation: RAT, LIVER, S-9, AROCLOR 1254 (10%), Method: PREINCUBATION): inactive; negative | mutagenic call (Test System: AMES SALMONELLA TYPHIMURIUM, Strain/Indicator: TA100, Metabolic Activation: RAT, LIVER, S-9, AROCLOR 1254, Method: PREINCUBATION): inactive; negative | mutagenic call (Test System: AMES SALMONELLA TYPHIMURIUM, Strain/Indicator: TA100, Metabolic Activation: RAT, LIVER, S-9, AROCLOR 1254, Method: STANDARD PLATE): active; positive | mutagenic call (Test System: AMES SALMONELLA TYPHIMURIUM, Strain/Indicator: TA102, Metabolic Activation: MOUSE LIVER S-9, AROCLOR 1254, Method: PREINCUBATION): inactive; negative | mutagenic call (Test System: AMES SALMONELLA TYPHIMURIUM, Strain/Indicator: TA102, Metabolic Activation: NONE, Method: PREINCUBATION): inactive; negative | mutagenic call (Test System: AMES SALMONELLA TYPHIMURIUM, Strain/Indicator: TA102, Metabolic Activation: RAT, LIVER, S-9, AROCLOR 1254, Method: PREINCUBATION): inactive; negative | mutagenic call (Test System: AMES SALMONELLA TYPHIMURIUM, Strain/Indicator: TA104, Metabolic Activation: MOUSE LIVER S-9, AROCLOR 1254, Method: PREINCUBATION): inactive; negative | mutagenic call (Test System: AMES SALMONELLA TYPHIMURIUM, Strain/Indicator: TA1535, Metabolic Activation: HAMSTER, LIVER, S-9, AROCLOR 1254 (10%), Method: PREINCUBATION): inactive; negative | mutagenic call (Test System: AMES SALMONELLA TYPHIMURIUM, Strain/Indicator: TA1535, Metabolic Activation: HAMSTER, LIVER, S-9, AROCLOR 1254, Method: PREINCUBATION): inactive; negative | mutagenic call (Test System: AMES SALMONELLA TYPHIMURIUM, Strain/Indicator: TA1535, Metabolic Activation: NONE, Method: PREINCUBATION): inactive; negative | mutagenic call (Test System: AMES SALMONELLA TYPHIMURIUM, Strain/Indicator: TA1535, Metabolic Activation: RAT LIVER S-9, PHENOBARBITAL AND BETA-NAPHTHOFLAVONE, Method: PREINCUBATION): inactive; negative | mutagenic call (Test System: AMES SALMONELLA TYPHIMURIUM, Strain/Indicator: TA1535, Metabolic Activation: RAT, LIVER, S-9, AROCLOR 1254 (10%), Method: PREINCUBATION): inactive; negative | mutagenic call (Test System: AMES SALMONELLA TYPHIMURIUM, Strain/Indicator: TA1535, Metabolic Activation: RAT, LIVER, S-9, AROCLOR 1254, Method: PREINCUBATION): inactive; negative | mutagenic call (Test System: AMES SALMONELLA TYPHIMURIUM, Strain/Indicator: TA1537, Metabolic Activation: HAMSTER, LIVER, S-9, AROCLOR 1254 (10%), Method: PREINCUBATION): inactive; negative | mutagenic call (Test System: AMES SALMONELLA TYPHIMURIUM, Strain/Indicator: TA1537, Metabolic Activation: HAMSTER, LIVER, S-9, AROCLOR 1254, Method: PREINCUBATION): inactive; negative | mutagenic call (Test System: AMES SALMONELLA TYPHIMURIUM, Strain/Indicator: TA1537, Metabolic Activation: NONE, Method: PREINCUBATION): inactive; negative | mutagenic call (Test System: AMES SALMONELLA TYPHIMURIUM, Strain/Indicator: TA1537, Metabolic Activation: RAT LIVER S-9, PHENOBARBITAL AND BETA-NAPHTHOFLAVONE, Method: PREINCUBATION): inactive; negative | mutagenic call (Test System: AMES SALMONELLA TYPHIMURIUM, Strain/Indicator: TA1537, Metabolic Activation: RAT, LIVER, S-9, AROCLOR 1254 (10%), Method: PREINCUBATION): inactive; negative | mutagenic call (Test System: AMES SALMONELLA TYPHIMURIUM, Strain/Indicator: TA1537, Metabolic Activation: RAT, LIVER, S-9, AROCLOR 1254, Method: PREINCUBATION): inactive; negative | mutagenic call (Test System: E.COLI, Strain/Indicator: WP2UVRA, Metabolic Activation: NONE, Method: PREINCUBATION): inactive; negative | mutagenic call (Test System: E.COLI, Strain/Indicator: WP2UVRA, Metabolic Activation: RAT LIVER S-9, PHENOBARBITAL AND BETA-NAPHTHOFLAVONE, Method: PREINCUBATION): inactive; negative | mutagenic call (Test System: MOUSE LYMPHOMA, Strain/Indicator: L5178Y (TK+/TK-), Metabolic Activation: NONE, Method: SUSPENSION/PLATE): active; positive
